In paper PMC11497331 (Glia, 2021):

Test system: primary microglia from wild-type (WT) mice
Format: cell-based

**Q.** C=C1[C@@H](C)[C@H]2[C@H](Cc3ccccc3)NC(=O)[C@]23[C@H](OC(C)=O)/C=C/[C@@](C)(O)C(=O)[C@@H](C)C/C=C/[C@H]3[C@@H]1O [cytochalasin D, Cytochalasin D] was tested. Which “effect of cytochalasin D on Aβ uptake” value did it give?
**A.** reduced
